Values after ≈ are worked out from the molar mass of the structure shown.
How the values were obtained:
[1] = test system: Vero cells; assay: Plaque reduction assay, minimal toxic dose (Vero cells); type: cell-based
Protocol: In vitro antiviral activity of BU-4344V was assessed using the herpes simplex virus type 1 (KOS strain) - Vero cell and influenza virus type A (Victoria strain) - Madin Darby canine kidney (MDCK) cell systems by the dye-uptake assay method [Antiviral Research, 3, 223-234 (1986)]. The cell suspension (200 μl ), containing 2×10^4 cells, was inoculated to each well of 96-well microplates and cultured at 37° C. for 48-72 hours under humidified 5% CO2 -95% air environment. The growth medium in each well was replaced with 250 μl of fresh medium (Eagle MEM without serum) containing BU-4344V at various doses, and then 50 μl medium containing approximately 10×TCID50 of the viruses was added to each well. For cytotoxicity tests, the same set of wells, without the viruses, were prepared. After 72 hours of incubation, the degree of inhibition of the viral-induced cytopathic effect and the drug-induced cytotoxicity were determined. […] The antiviral activity of BU-4344V was also determined using a conventional plaque reduction assay method.

[2] = test system: Herpes Simplex Virus Type I; assay: Plaque reduction assay, herpes simplex virus (Vero cells); type: cell-based, herpes simplex virus type 1
[3] = test system: herpes simplex virus type 1 (KOS strain); settings: 72 h
[4] = test system: Vero cells; settings: dye-uptake assay, Vero cells without viral infection, 72 hours
[5] = test system: Influenza Virus Type A; assay: Plaque reduction assay, influenza virus (MDCK cells); type: cell-based
[6] = test system: influenza virus type A (Victoria strain); assay: Dye-uptake assay, inhibition of viral-induced cytopathic effect, influenza virus - MDCK cell system; type: cell-based; settings: MDCK cells, 72 hours

With `Nc1nc2c(ncn2COCCO)c(=O)[nH]1` [Acyclovir, reference compound] the “MTD (Minimal Toxic Dose)” value [1] was greater than 100 µg/mL, the ID50 [2] was 0.25 µg/mL (≈ 1.11 µM) and the “ID50 (concentration showing 50% inhibition of the cytopathic effect)” value [3] was 0.2 µg/mL. For the same compound, the “TD50 (concentration exhibiting 50% cytotoxicity)” value [4] was greater than 100 µg/mL.
With `NC(=O)c1ncn([C@@H]2O[C@H](CO)[C@@H](O)[C@H]2O)n1` [Ribavirin, reference compound] the ID50 [5] was 3.8 µg/mL (≈ 15.6 µM) and the “ID50 (concentration showing 50% inhibition of the cytopathic effect)” value [6] was 10 µg/mL.

Reference: US5256548A, “Antiviral antibiotic BU-4344V” (Bristol-Myers Squibb Company, priority 1992, dated 1993)
